From patent US4647408A, “Carbapenem-type antibiotics” (Shionogi & Co., Ltd., priority 1983, dated 1987)
≈ marks a conversion by molar mass, not a printed value.

How the values were obtained:
[1] = biological target: T1, β-lactamase (cephalosporinase type) of Enterobacter cloacae 92 (Enterobacter cloacae, UniProt P05364); experiment: β-lactamase inhibitory activity, inhibition of hydrolysis of the substrate; format: biochemical; details: β-lactamase of Enterobacter cloacae 92, cephalosporinase type; pH 7.0, 10 min preincubation, read after 20 min
T1 construct: supernatant of sonicated, washed cells of the producing strain (crude cell-free extract)
Source text: (§1) (2) Test on the β-lactamase inhibitory activity:
(§2) The β-lactamase inhibitory activity is expressed as a minimum concentration (μg/ml) of the test compound which is required to inhibit the hydrolysis of the substrate by β-lactamase. The supernatant, which has been obtained by means of breaking the washed cells of the β-lactamase-producing microorganisms in a buffer with ultrasonic waves and then centrifuging the consequent cell-free extract, is employed as a standard β-lactamase.
(§3) A test compound is successively diluted with a buffer (pH 7.0) by a two-fold dilution method, the standard β-lactamase in added to each of the diluted solutions, then the mixture is allowed to stand for 10 minutes, and an indicator is added therein. The minimum inhibitory concentration at which no color is developed after observation for 20 minutes, is determined.
*^1 Producing cephalosporinasetype lactamase

[2] = tested on: β-lactamase (penicillinase type) of Klebsiella sp. 363; experiment: as above; format: biochemical; details: β-lactamase of Klebsiella sp. 363, penicillinase type; pH 7.0, 10 min preincubation, read after 20 min
Source text: as §1, §2, §3
*^2 Producing penicillinasetype lactamase

[3] = tested on: Gram-positive and Gram-negative microorganisms; experiment: Antimicrobial activity (general statement); format: cell-based; details: statement in words
Source text: (§4) Results of the tests on the antimicrobial activities and β-lactamase inhibitory activities are summarized as follows.

β-lactamase = β-lactamase inhibitory activity (general statement); format: biochemical; details: statement in words
Source text: as §4, §2, §3

Enterobacter cloacae 233 = experiment: Antimicrobial activity, agar dilution method; format: cell-based; details: inoculum 10^6 cells/ml, sensitivity disc agar, 37° C. overnight, read-out: Minimum Inhibitory Concentration
Description: (§5) (1) Antimicrobial Activity:
(§6) Test microorganism Concentration (μg/ml)
(§7) Determined by agar dilution method: Inoculum size 10^6 cells/ml,
(§8) Cultivation on a sensitivitydisc agar medium at 37° C. overnight.

[4] = tested on: Escherichia coli NIHJ JC-2; experiment: Antimicrobial activity, agar dilution method; format: cell-based; details: NIHJJC2, inoculum 10^6 cells/ml, sensitivity disc agar, 37° C. overnight, read-out: Minimum Inhibitory Concentration
Description: as §5, §6, §7, §8

[5] = tested on: Klebsiella pneumoniae SRL-1; experiment: Antimicrobial activity, agar dilution method; format: cell-based; details: SRL1, inoculum 10^6 cells/ml, sensitivity disc agar, 37° C. overnight, read-out: Minimum Inhibitory Concentration
Description: as §5, §6, §7, §8

Klebsiella sp. 363(R) = experiment: Antimicrobial activity, agar dilution method; format: cell-based; details: inoculum 10^6 cells/ml, sensitivity disc agar, 37° C. overnight, read-out: Minimum Inhibitory Concentration
Description: as §5, §6, §7, §8

Proteus mirabilis PR-4 = experiment: Antimicrobial activity, agar dilution method; format: cell-based; details: PR4, inoculum 10^6 cells/ml, sensitivity disc agar, 37° C. overnight, read-out: Minimum Inhibitory Concentration
Description: as §5, §6, §7, §8

[6] = tested on: Pseudomonas aeruginosa ATCC 25619; experiment: Antimicrobial activity, agar dilution method; format: cell-based; details: ATCC25619, inoculum 10^6 cells/ml, sensitivity disc agar, 37° C. overnight, read-out: Minimum Inhibitory Concentration
Description: as §5, §6, §7, §8

[7] = tested on: Staphylococcus aureus 209P JC-1; experiment: Antimicrobial activity, agar dilution method; format: cell-based; details: inoculum 10^6 cells/ml, sensitivity disc agar, 37° C. overnight, read-out: Minimum Inhibitory Concentration
Description: as §5, §6, §7, §8

[8] = tested on: Streptococcus pneumoniae I; experiment: Antimicrobial activity, agar dilution method; format: cell-based; details: inoculum 10^6 cells/ml, sensitivity disc agar, 37° C. overnight, read-out: Minimum Inhibitory Concentration
Description: as §5, §6, §7, §8

T1 sequence (P05364 21-381): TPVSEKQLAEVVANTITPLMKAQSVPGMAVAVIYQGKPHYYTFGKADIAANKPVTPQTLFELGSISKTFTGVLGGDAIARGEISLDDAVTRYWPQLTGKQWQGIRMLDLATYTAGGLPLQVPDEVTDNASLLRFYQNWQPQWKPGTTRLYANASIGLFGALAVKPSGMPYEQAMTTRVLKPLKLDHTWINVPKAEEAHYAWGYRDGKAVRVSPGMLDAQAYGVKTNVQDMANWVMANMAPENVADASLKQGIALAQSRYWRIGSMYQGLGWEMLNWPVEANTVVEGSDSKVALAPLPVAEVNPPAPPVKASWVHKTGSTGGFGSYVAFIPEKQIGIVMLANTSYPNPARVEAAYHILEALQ

| Structure (SMILES) | Minimum Inhibitory Concentration (inhibition of substrate hydrolysis by β-lactamase) [1] | Minimum Inhibitory Concentration (inhibition of substrate hydrolysis by β-lactamase) [2] | antimicrobial activities [3] | β-lactamase inhibitory activities (β-lactamase) | MIC (Enterobacter cloacae 233) | MIC [4] | MIC [5] | MIC (Klebsiella sp. 363(R)) | MIC (Proteus mirabilis PR-4) | MIC [6] | MIC [7] | MIC [8] |
| --- | --- | --- | --- | --- | --- | --- | --- | --- | --- | --- | --- | --- |
| CC(=O)NCC[S@@+]([O-])C1=C(C(=O)O)N2C(=O)[C@@H]([C@H](C)OS(=O)(=O)O)[C@H]2C1 [PA-41746-F] | 0.002 µg/mL | 0.002 µg/mL | antimicrobial activities against Gram-positive and Gram-negative microorganisms | excellent β-lactamase inhibitory activities | – | – | – | – | – | – | – | – |
| C[C@H](OS(=O)(=O)O)[C@@H]1C(=O)N2C(C(=O)O)=C([S@+]([O-])CCO)C[C@H]12 [PA-41746-E] | 0.016 µg/mL | 0.008 µg/mL | antimicrobial activities against Gram-positive and Gram-negative microorganisms | excellent β-lactamase inhibitory activities | – | – | – | – | – | – | – | – |
| C[C@H](OS(=O)(=O)O)[C@@H]1C(=O)N2C(C(=O)O)=C(S(=O)O)C[C@H]12 [PA-41746-A2] | 0.008 µg/mL | 1.0 µg/mL | antimicrobial activities against Gram-positive and Gram-negative microorganisms | excellent β-lactamase inhibitory activities | 6.25 µg/mL (≈ 18.3 µM) | 1.56 µg/mL (≈ 4.57 µM) | 1.56 µg/mL (≈ 4.57 µM) | 1.56 µg/mL (≈ 4.57 µM) | 3.13 µg/mL (≈ 9.17 µM) | > 100 µg/mL | 12.5 µg/mL (≈ 36.6 µM) | 1.56 µg/mL (≈ 4.57 µM) |
